Read-outs that look alike come from different tables or passages of the source.
Tests used:
wild type B-Raf = wild type B-Raf (Homo sapiens (Human), UniProt P15056); test: WT B-Raf IC50 assay, time-resolved fluorescence energy transfer; assay type: biochemical
Description: The IC50 for each compound was calculated by non linear regression by Graphpad Prism software.

B-Raf (V600E) = B-Raf (V600E) (Homo sapiens (Human), UniProt P15056, V600E); test: Raf IC50 assay, time-resolved fluorescence energy transfer, B-Raf (V600E); assay type: biochemical; conditions: 0.1 mM ATP; read-out: IC50 (nM) B_Raf^V600E
Description: The enzyme was incubated with the compounds at room temperature for 60 minutes and the reactions were initiated by the addition of ATP and GST-MEK1. After reaction at room temperature for 60 minutes, an equal volume of stop/detection solution was added according to the manufacture's instruction (CisBio Bioassays). […] The IC50 for each compound was derived from fitting the dose-response % inhibition data to the four-parameter logistic model by Graphpad Prism software.

A375 = test: Anti-proliferative activity EC50 assay (CellTiter-Glo) in A375; assay type: cell-based; conditions: Homo sapiens, A-375, 72 h; 3-day exposure; read-out: Cell Proliferation EC50 (nM) A375
Description: The growth-inhibitory activity of compounds in A375 and p61-A375, was determined using CellTiter-Glo luminescent cell viability assay (Promega). The 2,000 cells were seeded per well of a 96-well plate to ensure logarithmic growth could occur over the 3 days treatment period. Cells were left to attach for 16 hours, cells were treated in duplicate with a 10-point dilution series. Following a 3-day exposure to compounds disclosed herein, a volume of CellTiter-Glo reagent equal to the volume of cell culture medium present in each well was added. Mixture was mixed on an orbital shaker for 2 minutes to allow cell lysis, followed by 10 minutes incubation at room temperature to allow stabilization of luminescent signal, which corresponded to quantitation of ATP and thus the quantitation of metabolically active cells. Luminescent signal was measured using Pherastar FS reader (BMG Labtech).
EC50 values for growth inhibition were calculated by fitting dose-dependent data to the four-parameter logistic model using GraphPad Prism software.

C-Raf (Y340D/Y341D) = C-Raf (Y340D/Y341D) (Homo sapiens (Human), UniProt P04049, Y340D/Y341D); test: Raf IC50 assay, time-resolved fluorescence energy transfer, C-Raf (Y340D/Y341D); assay type: biochemical; conditions: 0.1 mM ATP
Description: The assay was carried out in reactions (10 μL) containing 0.0625 nM B-Raf or 0.5 nM C-Raf, 25 mM Tris pH7.4, 10 mM MgCl2, 0.5 mM EGTA, 0.5 mM Na3VO4, 5 mM beta-glycerophosphate, 0.01% Triton X-100, 2.5 mM DTT, 0.1% BSA, 0.1 mM ATP, 13.7 nM GST-tagged MEK1 (Full-length protein with K97R mutation, recombinant protein purified from bacterial expression system) and 0-5 μM compounds disclosed herein (final concentration of 1% DMSO). The enzyme was incubated with the compounds at room temperature for 60 minutes and the reactions were initiated by the addition of ATP and GST-MEK1. After reaction at room temperature for 60 minutes, an equal volume of stop/detection solution was added according to the manufacture's instruction (CisBio Bioassays). The stop/detection solution contained Eu^3+ cryptate-conjugated anti-phospho MEK1/2 (Ser217/221) rabbit polyclonal antibody and d2-conjugated anti-GST mouse monoclonal antibody in buffer containing 25 mM Tris pH7.4, 400 mM KF, 50 mM EDTA, 0.01% BSA and 0.01% Triton X-100. Plates were sealed and incubated at room temperature for 2 hours, and the TR-FRET signals (ratio of fluorescence emission at 665 nm over emission at 620 nm with excitation at 337 nm wavelength) were recorded on a PHERAstar FS plate reader (BMG Labtech). Phosphorylation of MEK1 led to the binding of anti-phospho-MEK1/2 antibody to GST-MEK1 protein that place fluorescent donor (Eu^3+ crypate) in close proximity to the accepter d2 on the anti-GST antibody, thus resulting in a high degree of fluorescence resonance energy transfer from the donor fluorophore (at 620 nm) to the acceptor fluorophore (at 665 nm). […] The IC50 for each compound was derived from fitting the dose-response % inhibition data to the four-parameter logistic model by Graphpad Prism software.

[1] = 2.5 mM ATP, read-out: IC50 (nM) B-Raf^WT 2.5 mM ATP
[2] = Km ATP (2.9 μM ATP), read-out: IC50 (nM) B-Raf^WT Km ATP

Chain of C-Raf (Y340D/Y341D) (P04049 whole entry Y340D/Y341D): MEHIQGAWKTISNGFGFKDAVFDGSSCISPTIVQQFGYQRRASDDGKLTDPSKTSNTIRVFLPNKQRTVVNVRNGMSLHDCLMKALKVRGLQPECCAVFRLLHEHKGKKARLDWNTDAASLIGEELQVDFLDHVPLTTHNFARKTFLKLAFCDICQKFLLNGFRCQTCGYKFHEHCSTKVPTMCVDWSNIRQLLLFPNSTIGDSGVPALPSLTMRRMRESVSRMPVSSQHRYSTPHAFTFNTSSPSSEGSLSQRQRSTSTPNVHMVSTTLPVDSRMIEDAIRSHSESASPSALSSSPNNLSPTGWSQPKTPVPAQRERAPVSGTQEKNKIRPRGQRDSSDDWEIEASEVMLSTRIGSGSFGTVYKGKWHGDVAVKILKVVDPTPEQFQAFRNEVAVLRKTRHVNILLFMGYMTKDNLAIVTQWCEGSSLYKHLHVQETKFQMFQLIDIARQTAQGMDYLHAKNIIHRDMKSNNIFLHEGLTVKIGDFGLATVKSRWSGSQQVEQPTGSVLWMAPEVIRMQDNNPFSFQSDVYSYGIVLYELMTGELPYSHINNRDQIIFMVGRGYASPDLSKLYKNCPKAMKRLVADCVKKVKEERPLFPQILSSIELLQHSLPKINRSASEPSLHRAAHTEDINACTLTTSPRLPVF
Chain of B-Raf (V600E) (P15056 whole entry V600E): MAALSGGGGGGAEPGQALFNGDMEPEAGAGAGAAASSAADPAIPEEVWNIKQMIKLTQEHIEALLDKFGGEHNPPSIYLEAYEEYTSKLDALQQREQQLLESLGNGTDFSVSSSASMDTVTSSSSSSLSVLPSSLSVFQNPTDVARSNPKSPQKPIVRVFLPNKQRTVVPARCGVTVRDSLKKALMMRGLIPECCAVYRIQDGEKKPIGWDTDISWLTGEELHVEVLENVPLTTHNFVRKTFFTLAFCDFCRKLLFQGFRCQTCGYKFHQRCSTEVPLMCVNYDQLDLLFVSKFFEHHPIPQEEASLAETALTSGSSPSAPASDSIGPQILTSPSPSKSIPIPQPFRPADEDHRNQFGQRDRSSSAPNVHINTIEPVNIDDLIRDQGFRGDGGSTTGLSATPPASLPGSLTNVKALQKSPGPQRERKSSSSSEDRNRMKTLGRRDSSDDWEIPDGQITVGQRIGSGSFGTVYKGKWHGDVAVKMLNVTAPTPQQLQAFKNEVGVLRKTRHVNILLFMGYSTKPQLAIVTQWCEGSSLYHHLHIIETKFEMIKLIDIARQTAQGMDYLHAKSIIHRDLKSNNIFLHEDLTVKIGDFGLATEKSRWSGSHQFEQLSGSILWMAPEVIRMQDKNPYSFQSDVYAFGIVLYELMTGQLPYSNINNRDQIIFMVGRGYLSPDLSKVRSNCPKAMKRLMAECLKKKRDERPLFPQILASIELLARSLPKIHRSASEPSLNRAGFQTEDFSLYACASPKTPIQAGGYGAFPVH
Chain of wild type B-Raf (P15056 whole entry): as the sequence (P15056 whole entry V600E) above, with E600V counted along it

| SMILES | IC50 (wild type B-Raf; [1]) [nM] | IC50 (wild type B-Raf; [2]) [nM] | IC50 (B-Raf (V600E)) [nM] | EC50 (A375) [nM] | IC50 (C-Raf (Y340D/Y341D)) [nM] |
| --- | --- | --- | --- | --- | --- |
| O=C1CCc2c(Oc3ccc4c(c3)[C@H]3[C@H](NC(=O)Nc5cccc(C(F)(F)F)c5)[C@H]3O4)ccnc2N1 [Compound 1.1, 1-((1S,1aS,6bS)-5-((7-oxo-5,6,7,8-tetrahydro-1,8-naphthyridin-4-yl)oxy)-1a,6b-dihydro-1H-cyclopropa[b]benzofuran-1-yl)-3-(3-(trifluoromethyl)phenyl)urea] | 43 | 13 | 8.3 | 109 | 1.6 |
| O=C1CCc2c(Oc3ccc4c(c3)[C@H]3[C@H](NC(=O)Nc5cc(C(F)(F)F)ccn5)[C@H]3O4)ccnc2N1 [Compound 1.2] | 18 | 6.3 | 4 | 122 | 0.77 |
| COc1ccc(CNC(=O)N[C@@H]2[C@H]3Oc4ccc(Oc5ccnc6c5CCC(=O)N6)cc4[C@@H]23)cc1 [Compound 1.3] | – | – | 40 | – | 0.54 |
| COc1cccc(NC(=O)N[C@@H]2[C@H]3Oc4ccc(Oc5ccnc6c5CCC(=O)N6)cc4[C@@H]23)c1Cl [Compound 1.6] | 11 | 4.5 | 1.9 | 229 | 0.33 |
| Cc1cc(Cl)ccc1NC(=O)N[C@@H]1[C@H]2Oc3ccc(Oc4ccnc5c4CCC(=O)N5)cc3[C@@H]12 [Compound 1.7] | – | 2.6 | 1.1 | – | 0.35 |
| O=C1CCc2c(Oc3ccc4c(c3)[C@H]3[C@H](NC(=O)Nc5ccc(Cl)cc5C(F)(F)F)[C@H]3O4)ccnc2N1 [Compound 1.9] | – | 21 | 9.5 | – | 1.6 |
| O=C1CCc2c(Oc3ccc4c(c3)[C@H]3[C@H](NC(=O)Nc5cc(F)cc(C(F)(F)F)c5)[C@H]3O4)ccnc2N1 [Compound 1.11] | 110 | 30 | 5.5 | 147 | 1.8 |
| O=C1CCc2c(Oc3ccc4c(c3)[C@H]3[C@H](NC(=O)Nc5cccc(C(F)(F)F)c5F)[C@H]3O4)ccnc2N1 [Compound 1.12] | 86 | 23 | 4.7 | 106 | 1.1 |
| C#Cc1cccc(NC(=O)N[C@@H]2[C@H]3Oc4ccc(Oc5ccnc6c5CCC(=O)N6)cc4[C@@H]23)c1 [Compound 1.14] | 8.5 | 2.8 | 1.9 | 127 | – |
| O=C1CCc2c(Oc3ccc4c(c3)[C@H]3[C@H](NC(=O)Nc5ccc(C(F)(F)F)cc5F)[C@H]3O4)ccnc2N1 [Compound 1.20] | – | 23 | 13 | – | 2.7 |
| O=C1CCc2c(Oc3ccc4c(c3)[C@H]3[C@H](NC(=O)Nc5ccccc5F)[C@H]3O4)ccnc2N1 [Compound 1.21] | 2.5 | 0.87 | 1.1 | 128 | 0.066 |
| O=C1CCc2c(Oc3ccc4c(c3)[C@H]3[C@H](NC(=O)Nc5cccc(F)c5)[C@H]3O4)ccnc2N1 [Compound 1.22] | 4.2 | 1.7 | 1.3 | 87 | 0.18 |
| O=C1CCc2c(Oc3ccc4c(c3)[C@H]3[C@H](NC(=O)Nc5cc(C(F)(F)F)ccc5F)[C@H]3O4)ccnc2N1 [Compound 1.33] | 75 | 19 | 9.5 | 137 | – |
| O=C1CCc2c(Oc3ccc4c(c3)[C@H]3[C@H](NC(=O)Nc5c(F)cc(F)cc5F)[C@H]3O4)ccnc2N1 [Compound 1.40] | – | 2 | 1.6 | – | 0.2 |
| O=C1CCc2c(Oc3ccc4c(c3)[C@H]3[C@H](NC(=O)Nc5c(F)ccc(F)c5F)[C@H]3O4)ccnc2N1 [Compound 1.48] | 7.9 | 2.5 | 0.74 | 686 | – |
| CC(C)(N)c1cc(NC(=O)N[C@@H]2[C@H]3Oc4ccc(Oc5ccnc6c5CCC(=O)N6)cc4[C@@H]23)cc(C(F)(F)F)c1 [Compound 1.70, 1-(3-(2-aminopropan-2-yl)-5-(trifluoromethyl)phenyl)-3-((1S,1aS,6bS)-5-((7-oxo-5,6,7,8-tetrahydro-1,8-naphthyridin-4-yl)oxy)-1a,6b-dihydro-1H-cyclopropa[b]benzofuran-1-yl)urea] | – | 15 | 7.4 | – | 0.81 |
| O=C1CCc2c(Oc3ccc4c(c3)[C@@H]3[C@@H](NC(=O)Nc5cccc(C(F)(F)F)c5)[C@@H]3O4)ccnc2N1 [Compound 1.71, 1-((1R,1aR,6bR)-5-((7-oxo-5,6,7,8-tetrahydro-1,8-naphthyridin-4-yl)oxy)-1a,6b-dihydro-1H-cyclopropa[b]benzofuran-1-yl)-3-(3-(trifluoromethyl)phenyl)urea] | – | – | 3 | – | 0.34 |
| O=C1CCc2c(Oc3ccc4c(c3)[C@H]3[C@H](NC(=O)N[C@H]5CCCc6ccccc65)[C@H]3O4)ccnc2N1 [Compound 1.79] | – | – | 3.2 | 222 | 0.39 |
| O=C1CCc2c(Oc3ccc4c(c3)[C@H]3[C@H](NC(=O)N[C@@H]5CCCc6ccccc65)[C@H]3O4)ccnc2N1 [Compound 1.80] | – | – | 4 | 132 | 0.5 |
| CC(C)(C)CNC(=O)N[C@@H]1[C@H]2Oc3ccc(Oc4ccnc5c4CCC(=O)N5)cc3[C@@H]12 [Compound 1.83] | – | – | 3 | 291 | – |
| CCCCCCCCNC(=O)N[C@@H]1[C@H]2Oc3ccc(Oc4ccnc5c4CCC(=O)N5)cc3[C@@H]12 [Compound 1.84] | – | – | 12 | 4330 | – |
| O=C(Nc1cc(F)c(F)cc1F)N[C@@H]1[C@H]2Oc3ccc(Oc4ccnc5c4COC(=O)N5)cc3[C@@H]12 [Compound 2.3, 1-((1S,1aS,6bS)-5-((2-oxo-2,4-dihydro-1H-pyrido[2,3-d][1,3]oxazin-5-yl)oxy)-1a,6b-dihydro-1H-cyclopropa[b]benzofuran-1-yl)-3-(2,4,5-trifluorophenyl)urea] | – | – | 2.6 | 190 | – |
| O=C1NCc2c(Oc3ccc4c(c3)[C@H]3[C@H](NC(=O)Nc5ccc(F)c(C(F)(F)F)c5)[C@H]3O4)ccnc2N1 [Compound 2.4, 1-(4-fluoro-3-(trifluoromethyl)phenyl)-3-((1S,1aS,6bS)-5-((2-oxo-1,2,3,4-tetrahydropyrido[2,3-d]pyrimidin-5-yl)oxy)-1a,6b-dihydro-1H-cyclopropa[b]benzofuran-1-yl)urea] | – | – | 11 | 374 | – |
| O=C1NCc2c(Oc3ccc4c(c3)[C@H]3[C@H](NC(=O)Nc5cc(F)c(F)cc5F)[C@H]3O4)ccnc2N1 [Compound 2.5] | – | – | 2.3 | 769 | – |
| CNC(=O)c1cc(Oc2ccc3c(c2)[C@H]2[C@H](NC(=O)Nc4cccc(C(F)(F)F)c4)[C@H]2O3)ccn1 [Compound 2.6, N-methyl-4-(((1S,1aS,6bS)-1-(3-(3-(trifluoromethyl)phenyl)ureido)-1a,6b-dihydro-1H-cyclopropa[b]benzofuran-5-yl)oxy)picolinamide] | – | – | 26 | 624 | – |
| CNC(=O)c1cc(Oc2ccc3c(c2)[C@H]2[C@H](NC(=O)Nc4ccc(F)c(C(F)(F)F)c4)[C@H]2O3)ccn1 [Compound 2.7] | – | – | 33 | 464 | – |
| CNC(=O)c1cc(Oc2ccc3c(c2)[C@H]2[C@H](NC(=O)Nc4cc(F)c(F)cc4F)[C@H]2O3)ccn1 [Compound 2.8] | – | 17 | 13 | – | 3 |
| Nc1cc(Oc2ccc3c(c2)[C@H]2[C@H](NC(=O)Nc4cc(F)c(F)cc4F)[C@H]2O3)ccn1 [Compound 2.15] | – | – | 18 | 10000 | – |
